ChEMBL document CHEMBL1201862, “PubChem BioAssay data set” (2004)
The source made the active and inactive calls.

Assays:
Bcl-2-like protein 1 = Bcl-2-like protein 1 (Homo sapiens, UniProt Q07817); assay: blockers of BCLXL peptide binding – biochemical, fluorescence polarization, 1536-well, selectivity assay for MCL1 inhibitor project, dose response (AID 2218)
[1] = molecular target: Induced myeloid leukemia cell differentiation protein Mcl-1 (Homo sapiens, UniProt Q07820); assay: blockers of MCL1 binding to BIM peptide – biochemical, fluorescence polarization, BIM-BH3 peptide, 1536-well, dose response (AID 2217)
Caspase-6 = molecular target: T1, Caspase-6 (Homo sapiens, UniProt P55212); assay: inhibition of CASP6 peptide cleavage – biochemical, VEID-R110 fluorescence, cherry-pick, dose response (AID 720632)
T1 sequence (P55212 whole entry): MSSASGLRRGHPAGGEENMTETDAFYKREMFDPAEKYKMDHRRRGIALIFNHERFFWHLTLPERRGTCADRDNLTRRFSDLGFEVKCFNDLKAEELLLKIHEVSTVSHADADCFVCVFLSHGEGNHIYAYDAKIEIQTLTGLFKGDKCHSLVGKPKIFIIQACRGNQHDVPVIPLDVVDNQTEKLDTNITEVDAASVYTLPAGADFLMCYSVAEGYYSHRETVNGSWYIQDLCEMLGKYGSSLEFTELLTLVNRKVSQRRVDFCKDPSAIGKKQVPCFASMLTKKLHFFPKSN

NADPH oxidase 1 = molecular target: T2, NADPH oxidase 1 (Homo sapiens, UniProt Q9Y5S8); format: functional, cell-based;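 also: Cell-based assay with luminescence read-out, IC50 derived from inhibitor dose-response curves; intracellular ROS from endogenous NOX1 in intact HT29 colon cancer cells; potency of inhibitors that lower the ROS luminescence signal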
T2 sequence (Q9Y5S8 whole entry): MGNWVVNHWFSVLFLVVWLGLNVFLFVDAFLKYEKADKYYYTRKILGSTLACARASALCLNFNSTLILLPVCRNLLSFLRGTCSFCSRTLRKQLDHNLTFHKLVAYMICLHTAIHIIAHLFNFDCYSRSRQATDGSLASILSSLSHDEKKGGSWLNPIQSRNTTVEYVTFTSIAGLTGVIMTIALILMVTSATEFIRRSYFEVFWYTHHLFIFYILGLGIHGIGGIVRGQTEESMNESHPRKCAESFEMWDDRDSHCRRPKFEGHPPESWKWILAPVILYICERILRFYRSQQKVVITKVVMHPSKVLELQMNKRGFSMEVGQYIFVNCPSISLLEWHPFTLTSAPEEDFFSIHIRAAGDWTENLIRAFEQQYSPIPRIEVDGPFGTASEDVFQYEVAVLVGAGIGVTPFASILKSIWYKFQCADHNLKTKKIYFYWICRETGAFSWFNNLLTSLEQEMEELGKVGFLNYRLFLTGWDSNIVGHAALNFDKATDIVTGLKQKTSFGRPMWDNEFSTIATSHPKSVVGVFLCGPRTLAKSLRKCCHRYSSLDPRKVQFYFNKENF

[2] = Luminescence-based dose response cell-based high throughput screening assay for cytotoxic compounds using the IEC-6 intestinal epithelial cell line. [Related pubchem assays: 1858 (Summary AID.), 1825 (Counterscreen.), 1907 (Confirmation screen.)]; format: functional
[3] = DRD fibroblast viability loss – cell-based, non-viral oncogenic, luminescence, dose response (AID 1934); format: functional; conditions: Homo sapiens
[4] = Luminescence Cell-Based Dose Response to Identify Activators of Luciferase Translation or Activity in H4-C Neuroglioblastoma Cells. [Related pubchem assays: 1829 (Project Summary), 1814 (Primary HTS)]; format: functional
BJ [5] = assay: growth inhibition of engineered Ras-driven BJ cells – cell-based, alamar blue fluorescence, cherrypicked samples, dose response (AID 2631); format: functional; conditions: Homo sapiens;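 also: confirmatory dose-response assay in RAS-dependent BJ fibroblasts engineered with TERT, LT and ST, with cytotoxicity read by fluorescence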
[6] = Luminescence Cell-Based Dose Response to Identify Activators of 5'UTR Stem-Loop Driven Prion Protein mRNA Translation in H4-C Neuroglioblastoma Cells. [Related pubchem assays: 1829 (Project Summary), 1814 (Primary HTS)]; format: functional
[7] = Luminescence Cell-Based Dose Confirmation HTS to Identify Activators of 5'UTR Stem-Loop Driven Alpha-Synuclein mRNA Translation in H4 Neuroglioblastoma Cells. [Related pubchem assays: 1829 (Project Summary), 1814 (Primary HTS)]; format: functional
[8] = decrease of insulin promoter-GFP reporter – imaging, high-content screening, mouse beta cells (AID 1628); format: functional; conditions: MIN6
[9] = MIN6 cell viability loss – mouse insulinoma, cytotoxicity control, dose response (AID 2122); format: functional;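 also: confirmatory high-throughput counterscreen run to flag cytotoxic compounds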
BJ [10] = assay: BJ-TERT fibroblast viability loss – cell-based, RAS-independent, luminescence, dose response (AID 1933); format: functional; conditions: Homo sapiens
[11] = Luminescence Cell-Based Dose Response HTS to Identify Activators of Luciferase Translation or Activity in H4 […] Cells. [Related pubchem assays: 1829 (Project Summary), 1814 (Primary HTS)]; format: functional
[12] = reduction of Shn3 3'UTR-driven luciferase in osteoblasts – cell-based, Clone20 osteoblasts, firefly luciferase, cherry-picked, dose response (AID 624132); format: functional;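 also: firefly luciferase luminescence from reporter carrying the Shn3 3'UTR in osteoblasts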
[13] = blockers of HIV-1 envelope-mediated cell-cell fusion – cherry-pick, dose response (AID 652057); format: functional, cell-based
BJ [14] = assay: cells; format: functional, cell-based; conditions: Homo sapiens
[15] = off-target signal loss in HeLa-CEM21 co-culture – HeLa F-luc CTL cells, cherry-picked, counter-screen for HIV-1 Env fusion inhibitor project, dose response (AID 652040); format: functional, cell-based;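 also: potency for signal decrease marking cytotoxic or nonspecific inhibition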
[16] = blockers of HIV-1 ZM109 envelope-driven cell-cell fusion – HeLa effector, CEM target cells, luciferase, cherry-pick, dose response (AID 652058); format: functional, cell-based;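 also: luciferase signal from HIV-1 Env mediated cell-cell fusion of effector and target cells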
[17] = molecular target: COUP transcription factor 2 (Homo sapiens, UniProt P24468); assay: Luminescence-based cell-based high throughput dose response assay to identify inhibitors of COUP-TFII (NR2F2).; format: functional;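 also: HEK293 cells transiently cotransfected with COUP-TFII expression vector and reporter; luciferase reporter luminescence driven by COUP-TFII from the pX2-168 reporter plasmid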
[18] = non-specific 3'UTR reporter inhibition in Clone20-Shn3RL – cell-based, Renilla luciferase, cherry-picked, counter-screen for Shn3 inhibitor project, dose response (AID 624133); format: functional
[19] = viability loss in CEM21 cells – cell-based, CellTiter-Glo luminescence, cherry-picked, cytotoxicity control for viral fusion inhibitor project, dose response (AID 652042); format: functional;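 also: potency for signal decrease meaning cytotoxicity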
BJ [20] = assay: BJ-TERT-LT-ST fibroblast viability loss – cell-based, RAS-independent, luminescence, dose response (AID 1935); format: functional; conditions: Homo sapiens;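 also: BJ fibroblasts immortalized with TERT plus LT and ST oncogenes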
[21] = HIV-1 AD8 envelope cell-cell fusion blockers – cherry-pick, dose response (AID 652062); format: functional, cell-based;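 also: luciferase signal from cell-cell fusion driven by HIV-1 clade B AD8 Env; potency is for inhibitors of fusion seen as a drop in luminescence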
[22] = Luminescence Cell-Based Dose Confirmation to Identify Activators of 5'UTR Stem-Loop Driven Alpha-Synuclein mRNA Translation in H4 Neuroglioblastoma Cells. [Related pubchem assays: 1829 (Project Summary), 1814 (Primary HTS)]; format: functional

Chain of Induced myeloid leukemia cell differentiation protein Mcl-1 (Q07820 whole entry): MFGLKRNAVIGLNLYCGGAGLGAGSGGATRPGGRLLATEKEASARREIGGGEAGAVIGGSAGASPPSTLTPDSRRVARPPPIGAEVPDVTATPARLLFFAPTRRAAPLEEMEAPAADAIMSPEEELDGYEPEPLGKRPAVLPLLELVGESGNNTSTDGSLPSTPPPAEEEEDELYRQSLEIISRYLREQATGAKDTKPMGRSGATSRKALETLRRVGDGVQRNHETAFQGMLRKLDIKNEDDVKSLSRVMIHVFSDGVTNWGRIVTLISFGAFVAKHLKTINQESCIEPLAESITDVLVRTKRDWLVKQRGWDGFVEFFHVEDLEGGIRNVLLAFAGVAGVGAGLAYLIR
Chain of Bcl-2-like protein 1 (Q07817 whole entry): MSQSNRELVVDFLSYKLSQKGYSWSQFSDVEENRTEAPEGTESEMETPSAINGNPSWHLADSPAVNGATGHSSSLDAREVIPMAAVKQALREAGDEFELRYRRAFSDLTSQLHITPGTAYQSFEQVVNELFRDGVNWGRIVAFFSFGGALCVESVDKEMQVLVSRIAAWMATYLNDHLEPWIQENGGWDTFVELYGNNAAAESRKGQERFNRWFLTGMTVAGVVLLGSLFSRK
Chain of COUP transcription factor 2 (P24468 whole entry): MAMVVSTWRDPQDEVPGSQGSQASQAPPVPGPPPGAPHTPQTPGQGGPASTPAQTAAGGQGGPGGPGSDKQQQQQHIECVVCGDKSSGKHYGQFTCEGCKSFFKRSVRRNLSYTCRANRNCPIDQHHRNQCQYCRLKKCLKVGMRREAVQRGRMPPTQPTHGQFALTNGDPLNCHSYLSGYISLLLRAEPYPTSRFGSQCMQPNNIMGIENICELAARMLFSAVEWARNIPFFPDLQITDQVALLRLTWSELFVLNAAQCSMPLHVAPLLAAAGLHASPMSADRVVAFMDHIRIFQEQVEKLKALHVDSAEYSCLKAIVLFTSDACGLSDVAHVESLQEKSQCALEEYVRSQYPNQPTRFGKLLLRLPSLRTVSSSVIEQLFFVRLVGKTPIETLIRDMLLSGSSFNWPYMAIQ

C/C(=N\NC(=O)c1cc(O)ccc1O)c1cccc(NC(=O)c2ccc(Cl)cc2)c1
59100 nM (not active): IC50 [1]
active: AC50 (Caspase-6) 8910 nM
> 109000 nM (not active): IC50 (Bcl-2-like protein 1)

O=C(Nc1ccc(NC(=O)c2ccccc2O)cc1)Nc1ccc(OCc2ccccc2)cc1
> 17000 nM (not active): IC50 (NADPH oxidase 1)

O=C1N(c2ccccc2)C[C@@H]2C[C@@H](c3cc4ccccc4o3)N3CCC[C@@]123
> 120000 nM (not active): EC50 [7] | EC50 [11]
inconclusive: EC50 [4] 266 nM | EC50 [6] 239 nM | EC50 (BJ [20]) 318 nM
active: IC50 [2] 189 nM | EC50 [3] 480 nM | EC50 (BJ [5]) 205 nM | IC50 [8] 441 nM | IC50 [9] 535 nM | EC50 (BJ [10]) 1370 nM | AC50 [12] 536 nM | AC50 [13] 1010 nM | EC50 (BJ [14]) 2350 nM | AC50 [15] 1260 nM | AC50 [16] 1300 nM | IC50 [17] 737 nM | AC50 [18] 29900 nM | AC50 [19] 534 nM | AC50 [21] 1270 nM | EC50 [22] 1600 nM
